Entries after “also recorded” stand apart in the source; their conditions may differ. Like-named read-outs stand apart in the source and are kept apart here. Marks after values point to notes of the source that are not given here.
Test system: canine model of septic shock (Pseudomonas aeruginosa)
Details: for effect of treatment on heart rate (HR): 3 hrs and 5 hrs posttreatment vs other septic groups; for ALT (alanine transaminase) / AST (aspartate transaminase) / Arterial pH / CK (creatine kinase) / Oxygen delivery / Cardiac output / LD (lactate dehydrogenase) / Lactate / Mean arterial pressure / Pulmonary wedge pressure / Stroke work index / Troponin / Heart Rates: mean ± SD; for effect of treatment on mean arterial pressure (MAP): infusion started at septic shock condition, 3 hr and 5 hr post treatment; for effect of treatment on blood lactate concentration: over the course of the study; for Systemic vascular resistance: mean (SD in the cell below)
Experimental: We used a bacteremic model of Pseudomonas aeruginosa in this study as previously described (20). We used this particular model, since we wanted to measure mitochondrial function and LA under conditions of an acute and intensive inflammatory response analogous to that which would occur in a severe bout of SS in the clinical condition. […] Over the course of the experiment, we studied the animals (18 to 26 kg) while anesthetized with sufentanil citrate (0.05-0.3 ug/kg/min) and midazolam (5 ug/kg/min), and while being ventilated receiving 100% oxygen to maintain arterial around PO2 ˜400 mmHg. We adjusted the ventilator rate over the course of the study to attenuate the development of the metabolic acidosis that is usually observed (20).
To assess hemodynamics in this model, we inserted vascular catheters under sterile conditions as previously described (20), after which we connected the catheters to pressure transducers (Cobe, Argon) that were referenced relative to the left atrium and connected to a chart recorder (Astro-Med, W Warwick, R.I.). To measure MAP, we inserted a polyethylene catheter into the right femoral artery, while to measure pulmonary vascular pressures, we inserted a Swanz-Ganz catheter (Edwards Lifesciences, Irvine, Calif.) by percutaneous techniques through the right jugular vein. From the Swanz-Ganz catheter, we obtained measurements of pulmonary arterial pressure (Ppa), wedge pressure (Pwp), and right atrial pressure (Rap), as well as determinations of thermodilution cardiac output (CO).
From the hemodynamic measurements, we calculated SV from CO/heart rates (HR), stroke work (SW) from [SV*(MAP−Pwp)], and systemic vascular resistance (SVR) from [(MAP-Rap)/CO)*80]. We also normalized measurements of SV, SW, and CO and organ oxygen delivery (DO2) to body weight. We calculated DO2 from CO×Hb×1.34 ml oxygen per gram of Hb, since Hb was 100% saturated at a PO2 of ˜400 mmHg. From the arterial catheter and distal port of the Swanz-Ganz catheter, we also took arterial and mixed venous blood samples, respectively, for analyses of PO2, PCO2, and pH.
In addition, we placed another polyethylene catheter into the left jugular vein, also by percutaneous techniques, for infusion of the bacteria and intravenous fluids and for obtaining blood chemistry and hematological samples. Since the baseline Pwp found in this model usually averages≈8-10 mmHg, we infused normal saline solution as necessary to maintain Pwp relatively constant over the duration of this study. […] The Clinical Chemistry Laboratory at the Health Sciences Centre performed the clinical laboratory tests.
We included 5 groups of animals in the initial phase of this study. These groups included a septic control group, a non-septic control group, a norepinephrine (NE) septic group, a gentisic acid sodium salt (GSS) septic group, and a GSS non-septic group. In each group, we made baseline measurements of hemodynamics and blood parameters after approximately 1 hr period of stability. In the septic groups, after initiation of the bacterial infusion, we repeated the measurements in the septic shock condition. […] In the septic control group, after the SS condition, we started an infusion of 5% dextrose in water (D5W) at approximately 40 ml/hr for the remainder of the study, since D5W was the diluent for both the NE and GSS treatments.
In all groups, we then made posttreatment measurements at 3 hrs and 5 hrs after completion of the septic shock/sham-shock determinations.
In this supplemental study, we examined the effect of gallic acid on hemodynamics and mitochondrial function in our Pseudomonas aeruginosa model in a manner identical to that described for GSS treatment.

[1] = septic dogs, listed as gentisic, sodium salt
[2] = septic dogs, 3 hrs posttreatment
[3] = septic dogs, 5 hrs posttreatment
[4] = septic dogs, baseline (before bacteria/treatment)
[5] = septic dogs, septic shock (before treatment)
[6] = septic dogs, septic shock condition (before treatment)

O=C([O-])c1cc(O)ccc1O.[Na+] [GSS, 2,5-dihydroxybenzoic acid sodium salt]
time of infusion until systemic blood pressure reached the baseline value (one dog of the gentisic septic group (FIG. 4)): approximately 20 minutes | arterial pH at the end of the study, compared among groups (septic dogs): higher | effect of treatment on stroke work index (septic dogs, 3 hr and 5 hr vs septic control group, did not reach statistical significance): an increase in stroke work index | effect of treatment on heart rate (HR) [1]: significant decrease in HR | effect of treatment on heart rate (HR) (septic dogs, sodium salt): heart rates were lower | effect of treatment on systemic vascular resistance (SVR) (septic dogs, 3 hrs and 5 hrs posttreatment vs septic shock condition, sodium salt): increased SVR back to the baseline value; also recorded: an increase in SVR | ALT (alanine transaminase) [2]: 209 ± 158*^+! IU | AST (aspartate transaminase) [2]: 235 ± 167*^+$ IU | Arterial pH [2]: 7.24 ± .08*^+$^ | CK (creatine kinase) [2]: 1847 ± 1763^! IU | Oxygen delivery [2]: 20 ± 7 mL/min/kg | ALT (alanine transaminase) [3]: 225 ± 171*^+ IU | AST (aspartate transaminase) [3]: 279 ± 208*^+!$ IU | Arterial pH [3]: 7.20 ± 0.06*^+#$^ | CK (creatine kinase) [3]: 2857 ± 2527*^!^ IU | Oxygen delivery [3]: 20 ± 19 mL/min/kg | ALT (alanine transaminase) [4]: 51 ± 29 IU | AST (aspartate transaminase) [4]: 29 ± 31 IU | Arterial pH [4]: 7.38 ± .03 | CK (creatine kinase) [4]: 117 ± 106 IU | Oxygen delivery [4]: 18 ± 3 mL/min/kg | effect of treatment on mean arterial pressure (MAP) (septic dogs, sodium salt): increased MAP back to the baseline value; also recorded: return in MAP to baseline | effect of treatment on blood lactate concentration [1]: did not increase and even tended to decrease slightly | effect of treatment on blood lactate concentration (septic dogs, sodium salt): did not change | ALT (alanine transaminase) [5]: 161 ± 132 IU | AST (aspartate transaminase) [5]: 143 ± 113 IU | Arterial pH [5]: 7.26 | CK (creatine kinase) [5]: 521 ± 750 IU | Oxygen delivery [6]: 26 ± 6 mL/min/kg

O=C(O)c1cc(O)c(O)c(O)c1 [gallic acid, 3,4,5 trihydroxybenzoic acid]
Systemic vascular resistance (septic dogs, 3 hrs post treatment): 1673 dynes S/cm^5 | ALT (alanine transaminase) [2]: 187 ± 68*^+! IU | AST (aspartate transaminase) [2]: 324 ± 104*^+$ IU | Arterial pH [2]: 7.17 ± .10*^+@$ | CK (creatine kinase) [2]: 3832 ± 3896*^+ IU | Cardiac output [2]: 120 ± 400 mL/min/kg | LD (lactate dehydrogenase) [2]: 415 ± 192*^+#@$^ IU | Lactate [2]: .8 ± .4^#! nunol/L | Mean arterial pressure [2]: 71 ± 10^*%@!$ mmHg | Oxygen delivery [2]: 26 ± 7 mL/min/kg | Pulmonary wedge pressure [2]: 11.6 ± 2.6^+ mmHg | Stroke work index [2]: 62 ± 28*^+ ml mmHg/Kg | Troponin [2]: 41 ± 92 ng/L | Systemic vascular resistance (septic dogs, 5 hrs post treatment): 1478 dynes S/cm^5 | ALT (alanine transaminase) [3]: 189 ± 66*^+#! IU | AST (aspartate transaminase) [3]: 363 ± 89*^+$ IU | Arterial pH [3]: 7.12 | CK (creatine kinase) [3]: 5065 IU | Cardiac output [3]: 130 ± 40 mL/min/kg | LD (lactate dehydrogenase) [3]: 513 IU | Lactate [3]: .75 ± .35^#! nunol/L | Mean arterial pressure [3]: 60 ± 5*^%@!$ mmHg | Oxygen delivery [3]: 22 ± 3 mL/min/kg | Pulmonary wedge pressure [3]: 11.3 ± 2.1^+ mmHg | Stroke work index [3]: 49 ± 20*^+ ml mmHg/Kg | Troponin [3]: 69 ± 157* ng/L | Systemic vascular resistance [4]: 3566 dynes S/cm^5 | ALT (alanine transaminase) [4]: 33 ± 16 IU | AST (aspartate transaminase) [4]: 19 ± 3 IU | Arterial pH [4]: 7.40 ± .05 | CK (creatine kinase) [4]: 104 ± 35 IU | Cardiac output [4]: 113 ± 20 mL/min/kg | Heart Rates [4]: 49 ± 3 | LD (lactate dehydrogenase) [4]: 36 ± 10 IU | Mean arterial pressure [4]: 105 ± 14 mmHg | Oxygen delivery [4]: 21 ± 6 mL/min/kg | Pulmonary wedge pressure [4]: 11.3 ± 2.3 mmHg | Stroke work index [4]: 212 ± 43 ml mmHg/Kg | Troponin (septic dogs, baseline (before bacteria/treatment), index of myocardial injury): 0 ± 3 ng/L | effect of treatment on mean arterial pressure (MAP) (septic dogs): did not produce an increase in MAP | effect of treatment on blood lactate concentration (septic dogs): reduction in lactate at 3 hrs and 5 hrs posttreatment | ALT (alanine transaminase) [5]: 157 ± 61 IU | AST (aspartate transaminase) [5]: 241 ± 104*^+$ IU | Arterial pH [5]: 7.25 ± .10*^+$ | CK (creatine kinase) [5]: 2650 ± 3339 IU | LD (lactate dehydrogenase) [5]: 200 ± 98*^+$ IU | Systemic vascular resistance [6]: 1257 dynes S/cm^5 | Cardiac output [6]: 150 ± 40 mL/min/kg | Heart Rates [6]: 125 ± 28*^+ | Mean arterial pressure [6]: 64 ± 12*^+ mmHg | Oxygen delivery [6]: 25 ± 6 mL/min/kg | Pulmonary wedge pressure [6]: 10.4 ± 2.7^+ mmHg | Stroke work index [6]: 72 ± 32*^+ ml mmHg/Kg | Troponin [6]: 14 ± 15 ng/L
